{"source": "patent US7271187B2", "about": "“Compositions and methods for promoting tissue regeneration” (priority 2000, dated 2007)", "key": {"PND5 rat cultures": {"test_system": "PND5 rat cultures", "assay": "Post natal day 5 rat cortical/subventricular zone cultures, immunostaining", "format": "cell-based", "method": "The method of the invention is also exemplified by a second embodiment in which N-[4-[(4-fluorophenyl)sulfonyl]phenyl]acetamide is administered in vitro to tissue from postnatal mammals. Treatment with N-[4-[(4-fluorophenyl)sulfonyl]phenyl]acetamide results in neuroregeneration as evidenced by immunostaining for beta-tubulin, eNCAM and MAP II. Neural tissue harvested from Post Natal day 5 (PND5) animals can be prepared in culture by the method above used with E18 cells, except that the cultures are not treated with glutamate because the neurons are unable to survive the culture preparation step. Using an assay system, cells can be treated with N-[4-[(4-fluorophenyl)sulfonyl]phenyl]acetamide 24 hours after the cultures are established.\nIn one study, PND-5 day cultures generated from tissue isolated specifically from the subventricular zone were compared to cultures generated from the whole cortex. Twenty four hours after dissection, cultures were treated with the compound. Four weeks after treatment, cultures were immunostained with antibodies against β-tubulin or antibodies against MAP II.\nPost natal day 5 rat pups (Taconic Labs) were decapitated, skin covering the cranium was removed so the bone over top the brain could be opened. Using a sterile spatula, the brain was extracted from the opened cranium and transferred to a 60 mm petri dish (Corning) containing sterile, ice cold Hank's balanced salt solution (HBSS). The meningial tissue was removed from the cortex, the cortex was gently teased away from the subcortical structures and transferred to a new 60 mm petri dish containing ice cold HBSS. Using a pair of fine, curved forceps, the desired cortical material was pinched from the remainder of the cortex and transferred to a new 60 mm petri dish containing ice cold HBSS. For most experiments, only tissue in the immediate vicinity of the subventricular zone was collected while in a few experiments, almost the entire cortex was pinched leaving only the outer most layer of cortical tissue behind. After harvesting all cortical tissue, the tissue was minced using two #11 scalpel blades that were repeatedly drawn across each other. After the majority of the tissue was minced into approximately 1 mm cubes, the HBSS was removed and replaced with 4 ml of trypsin/EDTA (Gibco—0.5%/5.3 mM) plus 1 ml of DNase (Sigma—0.01%). The petri dish containing tissue and enzymes were placed in a 37° C. incubator for 30 minutes and agitated every 5 minutes. After 30 minutes, the tissue was removed from the incubator and 1 ml 0.1 mg/ml of soybean trypsin inhibitor was added. Tissue was transferred to a 15 ml conical tube, spun at 500×g for 10 minutes in a refrigerated centrifuge. Supernatant was removed, the pellet was resuspended in 10 ml of DMEM+10% FBS, passed first through a 100 μm filter (Falcon) and finally through a 40 μm filter (Falcon). A cell count was performed to determine the final volume of media needed to yield a cell density of 1×10^6 viable cells per ml. Five hundred microliters of supernatant containing 5×10^5 viable cells was added to each well of 24 well cluster plates previously coated with 5 μg/ml poly lysine.\nTo remove the cellular debris, all plates were washed 24 hours after plating. Each plate was gently rocked several times, the media was removed and replaced with 1 ml of 37° C. DMEM. […]"}, "passaged astrocytes": {"test_system": "passaged astrocytes", "assay": "Highly enriched passaged astrocyte cultures, immunostaining", "format": "cell-based, rat", "conditions": "astrocytes passaged 3 times; untreated controls at a significantly reduced level", "method": "The method of the invention is also exemplified by a third embodiment in which astrocytes are passaged 3 times prior to in vitro treatment with the compound and samples derived from the whole cortex were compared to samples enriched for tissue from the subventricular zone.\nFor some experiments, freshly dissociated cortical cells were plated in poly lysine coated T-75 flasks. Cells were fed twice weekly with DMEM+10% FBS. After reaching confluence, cells were removed from the T-75 flask with typsin/EDTA (Gibco), pelleted and media removed. The cell pellet was resuspended in DMEM+10% FBS and split 1 to 5 into new T-75 flasks. This process was repeated 2 more times. After reaching confluence on the fourth passage, cells were removed from the T-75 flask as describe above and plated on poly lysine coated 24 well cluster plates at a density of 1×10^5 cells per well. Cells were maintained in DMEM+10% FB S until they reached confluence at which point, the media was removed and replaced with NeuralBasal+B27 supplementsN-[4-[(4-fluorophenyl)sulfonyl]phenyl]acetamide was dissolved in 2 hydroxypropyl-β-cyclodextrin and added to cultures at final concentrations ranging from 100 μg/ml to 10 ng/ml. […]"}, "bone marrow cells": {"test_system": "bone marrow cells", "assay": "Nestin expression in bone marrow cells after systemic administration", "format": "in vivo, rat", "conditions": "bone marrow harvested 3-7 days after systemic administration; vs non-treated rats", "text": "In some embodiments of the invention, cells, preferably bone marrow cells, can be transferred from a first animal treated according to methods of the invention to a site of chronic spinal cord injury in the first animal or in a second animal."}, "[1]": {"conditions": "study of subventricular zone vs whole cortex cultures, four weeks after treatment"}}, "data": [{"smiles": "CC(=O)Nc1ccc(S(=O)(=O)c2ccc(F)cc2)cc1", "note": "[N-[4-[(4-fluorophenyl)sulfonyl]phenyl]acetamide]", "values": [{"measurement": "number of β-tubulin positive cells", "setting": "PND5 rat cultures; four weeks post treatment, vs untreated control wells", "result": "increased numbers of β-tubulin positive cells"}, {"measurement": "eNCAM expression", "setting": "PND5 rat cultures; one week post treatment, vs untreated control samples", "result": "Enhanced expression of eNCAM"}, {"measurement": "MAP-II expression", "setting": "PND5 rat cultures; six weeks post treatment, vs untreated control samples", "result": "MAP-II expression is enhanced"}, {"measurement": "number of MAP II positive cells", "setting": "PND5 rat cultures; [1]", "result": "Greater numbers"}, {"measurement": "number of β-tubulin positive cells", "setting": "PND5 rat cultures; [1]", "result": "Greater numbers"}, {"measurement": "beta-tubulin positive cells with neuronal morphologies", "setting": "passaged astrocytes", "result": "show beta-tubulin positive cells with neuronal morphologies"}, {"measurement": "expression of Nestin in bone marrow cells", "setting": "bone marrow cells", "result": "increased expression of Nestin"}]}]}
